Assay results reported in publication PMC6018602, “The virulence factor LecB varies in clinical isolates: consequences for ligand binding and drug discovery” (Chemical Science, 2016).
Several values for one entry are separate records, joined by “and”; a condition that tells them apart may be missing. Identical values can stand only once. Like-named read-outs stand apart in the source and are kept apart here.

Columns and labels:
LecBPA14 [1] = biological target: T1, LecBPA14 (Pseudomonas aeruginosa, UniProt A0A0H2ZE85); assay: biochemical; assay type: binding, P. aeruginosa PA14
Protocol: (§1) To quantify the binding affinities of the carbohydrates we adapted the competitive binding assay for LecBPA14 (Fig. S5 ^†) previously described for LecBPAO1.[18]
(§2) The competitive binding assay based on fluorescence polarization was performed as described previously for PAO1.[18] […] After addition of the reagents, the plate was incubated for 8–22 h at r.t. in a humidity chamber. […] The measured intensities were reduced by buffer values and fluorescence polarization was calculated. The data were analyzed using BMG Labtech MARS software and/or with Graphpad Prism and fitted according to the four parameter variable slope model. […] A minimum of three independent measurements of triplicates each was performed for every ligand.

LecBPAO1 [2] = biological target: T2, LecBPAO1 (Pseudomonas aeruginosa, UniProt Q9HYN5); assay: biochemical; assay type: binding, P. aeruginosa PAO1
Protocol: as §1, §2

LecBPA14 [3] = biological target: T1, LecBPA14; assay: biochemical; assay type: binding, P. aeruginosa PA14; remark: listed apart in the source
LecBPAO1 [4] = biological target: T2, LecBPAO1; details: cited from earlier work; for N (LecBPAO1): ITC stoichiometry
LecBPAO1 [5] = biological target: T2, LecBPAO1; assay: biochemical; assay type: binding, P. aeruginosa PAO1; remark: listed apart in the source
[6] = biological target: LecB from P. aeruginosa PA14 (Pseudomonas aeruginosa UCBPP-PA14); assay: dynamic light scattering; 100 μM LecB in TBS/Ca (20 mM Tris, 137 mM NaCl, 2.6 mM KCl, pH 7.4, 1 mM CaCl2), 25 °C, Zetasizer Nano-ZS
[7] = biological target: LecB from P. aeruginosa PA14 (Pseudomonas aeruginosa UCBPP-PA14); assay: crystal structure; native LecB_(PA14), hanging drop vapor diffusion at 19 °C, molecular replacement with the tetramer of PDB 1UZV, 1.70 Å
[8] = IC50 for LecBPAO1, competitive binding assay
[9] = LecBPAO1 IC50, competitive binding assay, Fig. 3
[10] = individual ITC titrations, Fig. S6, TBS supplemented with 1 mM CaCl2
[11] = individual ITC titrations, Fig. S6, TBS supplemented with 1 mM CaCl2, protein and ligand concentrations vary

Which IC50 (LecBPA14 [1]) does the source give for `C[C@@H]1OC[C@@H](O)[C@H](O)[C@@H]1O` [Compound 8, 1-deoxy L-fucose] here?
Its IC50 is 610 ± 100 nM.

What does the source list for `CC(=O)N[C@H]1[C@H](O[C@H]2[C@H](O)[C@@H](NC(C)=O)C(O)O[C@@H]2CO)O[C@H](CO)[C@@H](O[C@@H]2O[C@H](CO[C@H]3O[C@H](CO)[C@@H](O)[C@H](O)[C@@H]3O[C@@H]3O[C@H](CO)[C@@H](O[C@@H]4O[C@H](CO)[C@H](O)[C@H](O[C@@H]5O[C@H](CO)[C@@H](O[C@@H]6O[C@H](CO)[C@H](O)[C@H](O)[C@H]6O[C@@H]6O[C@@H](C)[C@@H](O)[C@@H](O)[C@@H]6O)[C@H](O)[C@H]5NC(C)=O)[C@H]4O)[C@H](O)[C@H]3NC(C)=O)[C@@H](O)[C@H](O[C@H]3O[C@H](CO)[C@@H](O)[C@H](O)[C@@H]3O[C@@H]3O[C@H](CO)[C@@H](O[C@@H]4O[C@H](CO)[C@H](O)[C@H](O[C@@H]5O[C@H](CO)[C@@H](O[C@@H]6O[C@H](CO)[C@H](O)[C@H](O)[C@H]6O[C@@H]6O[C@@H](C)[C@@H](O)[C@@H](O)[C@@H]6O)[C@H](O)[C@H]5NC(C)=O)[C@H]4O)[C@H](O)[C@H]3NC(C)=O)[C@@H]2O)[C@@H]1O` (stereo partly shown) [Compound 23]?
IC50 (LecBPA14 [1]): 35 nM; IC50 (LecBPAO1 [2]; [8]): 114 nM

Which results are given for `CC(=O)NC1C(OC2C(O)C(O)OC(CO)C2O)OC(CO)C(OC2OC(C)C(O)C(O)C2O)C1OC1OC(CO)C(O)C(O)C1O` (stereo not shown) [Compound 12, Lewis^a]?
IC50 (LecBPA14 [1]): 78 nM; IC50 (LecBPAO1 [2]; [8]): 166 nM; IC50 (LecBPAO1 [2]; [9]): 170 ± 10 nM; N (LecBPA14) (LecBPA14 [3]; ITC stoichiometry, 25 °C): 1.05 ± 0.11; -TΔS (LecBPA14) (LecBPA14 [3]; ITC, 25 °C): -0.813 ± 0.509 kcal/mol; ΔG (LecBPA14) (LecBPA14 [3]; ITC, 25 °C): -9.78 ± 0.196 kcal/mol; ΔH (LecBPA14) (LecBPA14 [3]; ITC, 25 °C): -8.99 ± 0.602 kcal/mol; Kd (LecBPA14 [3]; Kd (LecBPA14), ITC, 25 °C): 70 nM; Kd (LecBPA14 [3]; Kd, individual ITC titrations, Fig. S6, TBS supplemented with 1 mM CaCl2): 62.1 nM and 96.2 nM and 50.3 nM; G (LecBPA14 [3]; [10]): -9,83E+03 cal/mol and -9,57E+03 cal/mol and -9,96E+03 cal/mol; H (LecBPA14 [3]; [10]): -8.521 kcal/mol and -8.769 kcal/mol and -9.667 kcal/mol; s (LecBPA14 [3]; [10]): 4,39 cal/molK and 2,69 cal/molK and 0,969 cal/molK; Ka (LecBPA14 [3]; [11]): 1,61E+07 1/M and 1,04E+07 1/M and 1,99E+07 1/M; N (LecBPAO1) (LecBPAO1 [4]): 1.08; -TΔS (LecBPAO1) (LecBPAO1 [4]; ITC): -0.741 kcal/mol; ΔG (LecBPAO1) (LecBPAO1 [4]; ITC): -9.11 kcal/mol; ΔH (LecBPAO1) (LecBPAO1 [4]; ITC): -8.34 kcal/mol; Kd (LecBPAO1 [4]; read-out: Kd (LecBPAO1), ITC): 212 nM

Which “-TΔS (LecBPA14)” value (LecBPA14 [3]) does the source give for `CO[C@H]1O[C@H](CO)[C@@H](O)[C@H](O)[C@@H]1O` [Compound 5, methyl α-D-mannoside] here?
Its value is -3.47 ± 0.0789 kcal/mol.

And the G (LecBPA14 [3])?
The G was -6,63E+03 cal/mol and -6,52E+03 cal/mol and -6,48E+03 cal/mol.

And the Ka (LecBPA14 [3])?
Its Ka is 7,18E+04 1/M and 6,20E+04 1/M and 5,54E+04 1/M.

What about the “N (LecBPA14)” value (LecBPA14 [3]) of the same compound?
Its value is 1.03 ± 0.07.

What about the s (LecBPA14 [3]) of the same compound?
Its s is 11,8 cal/molK and 11,3 cal/molK and 11,7 cal/molK.

And the “ΔH (LecBPA14)” value (LecBPA14 [3])?
Its value is -3.08 ± 0.0813 kcal/mol.

What about the “N (LecBPAO1)” value (LecBPAO1 [4]) of the same compound?
The value was 0.94.

And the “-TΔS (LecBPAO1)” value (LecBPAO1 [4]; ITC)?
The value was -1.41 kcal/mol.

What about the “ΔH (LecBPAO1)” value (LecBPAO1 [4]; ITC) of the same compound?
Its value is -4.25 kcal/mol.

For `CC(=O)NC1C(OC2C(O)C(O)OC(CO)C2O)OC(CO)C(OC2OC(CO)C(O)C(O)C2OC2OC(C)C(O)C(O)C2O)C1O` (stereo not shown) [Compound 15, H type II], which IC50 (LecBPA14 [1]) is on record?
The IC50 was 180 nM.

And the IC50 (LecBPAO1 [2]; [8])?
Its IC50 is 930 nM.

What about the “N (LecBPA14)” value (LecBPA14 [3]; ITC stoichiometry, 25 °C) of the same compound?
Its value is 0.98 ± 0.03.

What about the “-TΔS (LecBPA14)” value (LecBPA14 [3]; ITC, 25 °C) of the same compound?
Its value is -2.75 ± 0.263 kcal/mol.

What about the “ΔG (LecBPA14)” value (LecBPA14 [3]; ITC, 25 °C) of the same compound?
The value was -9.18 ± 0.22 kcal/mol.

What about the “ΔH (LecBPA14)” value (LecBPA14 [3]; ITC, 25 °C) of the same compound?
Its value is -6.43 ± 0.454 kcal/mol.

What about the Kd (LecBPA14 [3]; Kd (LecBPA14), ITC, 25 °C) of the same compound?
Its Kd is 199 nM.

What about the Kd (LecBPAO1 [5]) of the same compound?
Its Kd is 605 ± 140 nM.

And the “N (LecBPAO1)” value (LecBPAO1 [5]; ITC stoichiometry, 25 °C)?
Its value is 1.01 ± 0.07.

What about the “-TΔS (LecBPAO1)” value (LecBPAO1 [5]; ITC, 25 °C) of the same compound?
Its value is -0.837 ± 0.096 kcal/mol.

And the “ΔG (LecBPAO1)” value (LecBPAO1 [5]; ITC, 25 °C)?
Its value is -8.48 ± 0.12 kcal/mol.

And the “ΔH (LecBPAO1)” value (LecBPAO1 [5]; ITC, 25 °C)?
The value was -7.67 ± 0.096 kcal/mol.

For `OC1[C@H](O)COC[C@H]1O` [Compound 7, 1-deoxy D-arabinose], which IC50 (LecBPA14 [1]) is on record?
The IC50 was 6800 ± 1200 nM.

Which “N (LecBPA14)” value (LecBPA14 [3]; ITC stoichiometry, 25 °C) does the source give for `CO[C@@H]1O[C@@H](C)[C@@H](O)[C@@H](O)[C@@H]1O` [Compound 2, methyl α-L-fucoside] here?
Its value is 0.99 ± 0.04.

What about the “-TΔS (LecBPA14)” value (LecBPA14 [3]; ITC, 25 °C) of the same compound?
Its value is -1.5 ± 0.201 kcal/mol.

And the “ΔH (LecBPA14)” value (LecBPA14 [3]; ITC, 25 °C)?
The value was -7.65 ± 0.227 kcal/mol.

What about the G (LecBPA14 [3]; [10]) of the same compound?
The G was -9,15E+03 cal/mol and -9,22E+03 cal/mol and -9,24E+03 cal/mol and -8,96E+03 cal/mol.

And the H (LecBPA14 [3]; [10])?
Its H is -7.957 kcal/mol and -7.593 kcal/mol and -7.612 kcal/mol and -7.414 kcal/mol.

And the s (LecBPA14 [3]; [10])?
The s was 5,45 cal/molK and 5,47 cal/molK and 5,18 cal/molK and 4,01 cal/molK.

And the Ka (LecBPA14 [3]; [11])?
The Ka was 3,69E+06 1/M.

What about the “-TΔS (LecBPAO1)” value (LecBPAO1 [4]; ITC) of the same compound?
The value was 1.17 kcal/mol.

And the “ΔH (LecBPAO1)” value (LecBPAO1 [4]; ITC)?
Its value is -9.87 kcal/mol.

Which IC50 (LecBPA14 [1]) does the source give for `OCC1OC(OC2C(O)C(O)OC(CO)C2O)C(O)C(O)C1O` [Compound 11, α-1,3-D-mannosyl D-mannose] here?
The IC50 was 26000 ± 6000 nM.

And the IC50 (LecBPAO1 [2]; [9])?
The IC50 was 63000 ± 3000 nM.

Which IC50 (LecBPA14 [1]) does the source give for `CO[C@@H]1OC[C@@H](O)[C@@H](O)[C@@H]1O` [Compound 6, methyl β-D-arabinoside] here?
Its IC50 is 1900 ± 400 nM.

What does the source list for “LecB from P. aeruginosa PA14 (natural protein)”?
stoichiometry N [6]: 4; stoichiometry N [7]: 4

Which IC50 (LecBPA14 [1]) does the source give for `OC[C@H]1OC[C@@H](O)[C@@H](O)[C@@H]1O` [Compound 9, 1-deoxy D-mannose] here?
Its IC50 is 56000 ± 16000 nM.

Which IC50 (LecBPA14 [1]) does the source give for `CC(=O)NC1C(OC2C(O)C(O)OC(CO)C2O)OC(CO)C(O)C1OC1OC(CO)C(O)C(O)C1OC1OC(C)C(O)C(O)C1O` (stereo not shown) [Compound 14, H type I] here?
Its IC50 is 910 ± 100 nM.

And the IC50 (LecBPAO1 [2]; [9])?
Its IC50 is 2300 ± 100 nM.

Which IC50 (LecBPA14 [1]) does the source give for `OCC1OC(OC2C(O)OC(CO)C(O)C2O)C(O)C(O)C1O` [Compound 10, α-1,2-D-mannosyl D-mannose] here?
The IC50 was 26000 ± 5000 nM.

And the IC50 (LecBPAO1 [2]; [9])?
Its IC50 is 85000 ± 2000 nM.

With `CC(=O)NC1C(OC2C(O)C(O)OC(CO)C2O)OC(CO)C(OC2OC(C)C(O)C(O)C2O)C1OC1OC(CO)C(O)C(O)C1OC1OC(C)C(O)C(O)C1O` (stereo not shown) [Compound 16, Lewis^b] as the compound, how does the IC50 (LecBPA14 [1]) read?
The IC50 was 150 ± 10 nM.

And the IC50 (LecBPAO1 [2]; [9])?
The IC50 was 690 ± 40 nM.
